Patent US20230390309A1, “TETRACYCLINE DERIVATIVES FOR TREATING NEURODEGENERATIVE OR NEUROINFLAMMATORY DISEASES” (INSTITUT DU CERVEAU ET DE LA MOELLE EPINIERE, priority 2020, published 2023)
In brackets after ≈: the same amount, converted by molar mass. Like-named read-outs stand apart in the source and are kept apart here.

Key:
E. coli DH5α = test: Disc diffusion assay to assess antimicrobial activities (inhibition of bacterial growth); assay type: cell-based; details: read-out: Minimal inhibitory concentration
Experimental: The antibacterial activities of test compounds were evaluated using the disc diffusion method (Kavanagh, Academic Press, Inc., New York, 1963, 125-140; Pomares et al, J Bacteriol. 2008, 30 190, 4328-4334). Briefly, filter-paper discs impregnated with 10 μl of two-fold serial dilutions of test compounds were placed onto LB solid medium Petri dishes. Then, aliquots (50 μl) of an E. coli DH5α culture in stationary phase were mixed with 3 ml of top agar (0.7% agar) and overlaid onto the plates. After overnight incubation at 37° C., the plates were examined for different degrees of inhibition. The antibacterial efficacy of a test compound was estimated by the Minimum Inhibitory Concentration (MIC) assay that determines the lowest concentration inhibiting visible growth of bacteria. Each test was performed in duplicate vs. the reference compound, doxycycline (“DOX”).

[1] = test system: dopaminergic midbrain neurons (TH+); test: Neuroprotection of TH+ dopaminergic neurons in primary mouse midbrain cultures (spontaneous oxidative stress); assay type: cell-based; details: Neuron, 168 h, cultured for 7 days, estimated graphically, read-out: EC50 (concentration protecting 50% of TH+ neurons)
Experimental: The inventors have further shown that compounds 1-H and 1-Me exert robust and concentration-dependent neuroprotective effects in a cell model in which the dopaminergic midbrain neurons, vulnerable in Parkinson's disease, degenerate further to a spontaneous oxidative stress of low intensity resulting from the presence of catalytic iron in the culture medium (Guerreiro et al, J Neurochem. 2009; 109(4):1118-28; Rousseau et al, Mol Pharmacol. 2013; 84(6):888-98).
Cultures were carried out using embryos of Swiss mice (Janvier LABS, Le Genest St. Isles, 30 France), collected at 13.5 days of gestation. The experimental procedures were performed in accordance with Directive 2010/63/EU of the Council of the European Union, using a protocol validated by the Charles Darwin ethics committee no. 5. The protocol is based on techniques reported previously (Rousseau et al, 2013, supra; Lavaur et al, J Neurochem. 2017; 142(1):14-28), using an additional step of trypsinization with an EDTA (2mM)-trypsin (0.05%) solution to facilitate the dissociation of brain tissue. The cells in suspension are distributed in 48-well multi-well dishes (Nunc; ThermoFisher Scientific), at a density of 50-80. 10^3 cells/cm^2, using Dulbecco's Modified Eagle's Medium/Nutrient Mixture F-12 Ham (Sigma-Aldrich), supplemented with 10% fetal calf serum. After 2 hours, the cultures are washed completely and placed in the presence of the same medium containing only 20 μg/ml of bovine insulin. The cultures are also treated with cytarabine (1.5 μM) on the first day in vitro and on the following day to reduce the number of glial cells in the cultures.
These cultures contain between 1 to 2% of dopaminergic neurons. […] Assessment of the number of dopaminergic neurons is done by counting TH^+ neurons with a Nikon Eclipse Ti-U inverted microscope.
The reference molecule used to prevent the loss of dopaminergic neurons is apotransferrin (APO; Sigma Aldrich; 100 μg/ml), a protein that chelates ferric iron in culture medium.

[2] = molecular target: human recombinant monomeric α-Synuclein (Homo sapiens, UniProt P37840); test: Thioflavin-T fluorescence assay of α-Synuclein amyloid aggregation; assay type: biochemical; details: test compound 100 μM; 70 μM α-Synuclein; after 144 hours of shaking; percent of optimal response without tetracycline
Experimental: Aggregation studies were performed at 37° C. on samples containing 70 μM human recombinant monomeric α-Synuclein that were submitted to constant orbital agitation (Thermomixer Comfort, Eppendorf) at 600 rpm in the absence or in the presence of test compounds, at 100 μM. The formation of α-Synuclein aggregated species was monitored using the fluorescence probe Thioflavin-T (LeVine, Methods Enzymol. 1999, 309, 274-284; González-Lizárraga, et al. Sci Rep. 2017, 7, 41755), at a concentration of 25 μM. Changes in emission fluorescence were measured after 144 hrs of continuous shaking, at an excitation wavelength of 450 nm using a Horiba FluoroMax 4 spectrometer.

[3] = E. coli DH5α, disc diffusion, overnight incubation at 37° C., assayed twice
[4] = Escherichia coli, E. coli DH5α, disc diffusion, overnight incubation at 37° C., assayed twice

| Structure (SMILES) | MIC (E. coli DH5α; [3]) | MIC (E. coli DH5α; Escherichia coli) | EC50 [1] | residual Thioflavin-T fluorescence level [2] | MIC (E. coli DH5α; [4]) |
| --- | --- | --- | --- | --- | --- |
| NC(=O)C1=C(O)C[C@@H]2C[C@H]3C(=C(O)C2C1=O)C(=O)c1c(O)ccc(Cl)c1[C@H]3O (stereo partly drawn) [1-H, 7-chloro-3,6,10,12-tetrahydroxy-1,11-dioxo-1,4,4α,5,5α,6,11,12α-octahydrotetracene-2-carboxamide] | >2000 µM | > 2000 µM | 810 nM | 1.5% |  |
| C[C@@]1(O)c2c(Cl)ccc(O)c2C(=O)C2=C(O)C3C(=O)C(C(N)=O)=C(O)C[C@@H]3C[C@@H]21 (stereo partly drawn) [1-Me, 7-chloro-3,6,10,12-tetrahydroxy-6-methyl-1,11-dioxo-1,4,4α,5,5α, 6,11,12α-octahydrotetracene-2-carboxamide] | >2000 µM |  | 2010 nM | 13.5% | > 2000 µM |
| C[C@H]1c2cccc(O)c2C(=O)C2=C(O)[C@]3(O)C(=O)C(C(N)=O)=C(O)[C@@H](N(C)C)[C@@H]3[C@@H](O)[C@@H]21 [DOX, doxycycline, reference compound] |  |  | 5200 nM | 21.1% | 62.5 µM (≈ 27.8 µg/mL) |
